Test results reported in patent publication US8822503B2, “2-pyridone compounds” (Taisho Pharmaceutical Co., Ltd, priority 2009, dated 2014).

Biological target: T1, human liver GK (Homo sapiens, UniProt P35557)
T1 construct: GST (glutathione S-transferase) (N); made in house; host or cells: E. coli
T1 sequence (P35557 1-466 isoform P35557-2): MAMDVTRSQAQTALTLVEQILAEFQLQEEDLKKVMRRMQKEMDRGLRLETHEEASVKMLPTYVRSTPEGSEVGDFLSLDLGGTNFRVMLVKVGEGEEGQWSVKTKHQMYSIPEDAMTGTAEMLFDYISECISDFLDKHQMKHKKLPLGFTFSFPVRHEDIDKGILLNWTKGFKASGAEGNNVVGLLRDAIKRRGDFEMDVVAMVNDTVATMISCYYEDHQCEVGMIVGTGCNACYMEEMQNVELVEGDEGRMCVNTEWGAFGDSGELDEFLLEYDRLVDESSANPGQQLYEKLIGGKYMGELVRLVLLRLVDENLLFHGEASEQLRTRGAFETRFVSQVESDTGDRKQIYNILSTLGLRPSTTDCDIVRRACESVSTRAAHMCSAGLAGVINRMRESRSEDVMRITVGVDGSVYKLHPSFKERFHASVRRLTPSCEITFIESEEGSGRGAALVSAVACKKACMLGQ
Assay: GK activation test
Type: biochemical
Conditions: test compound concentration needed to activate 50% of maximum activation ability; 4 mM 14C-labeled glucose, 2 mM ATP, room temperature, 20 minutes
Procedure: The GK activation test for the test compounds was performed by the method of Irwin A. Rose et al. (J. Biol. Chem. 1964 January; 239:12-7) with partial modifications.
The enzyme source used in this assay, human liver GK, was expressed in E. coli as a fusion protein with GST (glutathione S-transferase) added to the amino terminus and was purified using Glutathione Sepharose 4B (Amersham Biosciences).
The test was carried out using flat-bottom 96-well plates (Sumitomo Bakelite Co., Ltd.). A solution of the test compound in dimethyl sulfoxide (DMSO) and DMSO as a control were added to each well of the plates at a final DMSO concentration of 1%. 25 mM Hepes-KOH (pH=7.1), 25 mM KCl, 2 mM MgCl2, 2 mM ATP, 4 mM ^14C-labeled glucose (Muromachi Yakuhin) and 1 mM DTT (dithiothreitol) were further added at the indicated final concentrations, respectively. Finally, human liver GK was added at 0.24 microgram per well and the reaction was started. The reaction was carried out at room temperature.
After 20 minutes, AG1-X4 resin (BioRad) suspended in 25 mM Hepes-KOH (pH=7.1) was added and the reaction product, labeled glucose 6-phosphate, was allowed to bind thereto. The whole volume was transferred to MultiScreen plates (Millipore) and the resin was washed with water. Thereafter, the labeled glucose 6-phosphate binding to the resin was eluted with a 0.5 M NaCl solution. The labeling activity of the eluted labeled glucose 6-phosphate was measured as an index of GK activity.
The GK activity maximally activated by the test compound was described as maximum activation ability, and the test compound concentration needed to activate 50% of that ability was described as EC50.

Structure (SMILES): CSc1ccc([C@]2(c3ccc(C)c(=O)[nH]3)C[C@@H]2C2CCCC2)cc1Cl (relative stereo) [Example 3-1, trans-6-{-1-[3-Chloro-4-(methylsulfanyl)phenyl]-2-cyclopentylcyclopropyl}-3-methylpyridin-2(1H)-one]
- EC50: 0.5 to 3 µM

Structure (SMILES): Cc1ccc([C@@]2(c3ccc(S(C)(=O)=O)c(Cl)c3)C[C@@H]2C2CCCC2)[nH]c1=O (relative stereo) [Example 3-2, trans-6-{1-[3-Chloro-4-(methylsulfonyl)phenyl]-2-cyclopentylcyclopropyl}-3-methylpyridin-2(1H)-one]
- EC50: 0.5 to 3 µM

Structure (SMILES): CSc1ccc([C@]2(c3ccc(C)c(=O)[nH]3)C[C@@H]2C2CCCC2)cc1 (relative stereo) [Example 3-3, trans-6-{2-Cyclopentyl-1-[4-(methylsulfanyl)phenyl]cyclopropyl}-3-methylpyridin-2(1H)-one]
- EC50: 0.5 to 3 µM

Structure (SMILES): Cc1ccc([C@@]2(c3ccc(S(C)(=O)=O)cc3)C[C@@H]2C2CCCC2)[nH]c1=O (relative stereo) [Example 3-4, trans-6-{2-Cyclopentyl-1-[4-(methylsulfonyl)phenyl]cyclopropyl}-3-methylpyridin-2(1H)-one]
- EC50: 3 to 10 µM

Structure (SMILES): CC(C)(C)c1ccc(C(C[C@H]2CCC(=O)N2)c2ccc(Cl)c(=O)[nH]2)cc1 (single isomer, unassigned) [Example 4-69]
- EC50: 3 to 10 µM

Structure (SMILES): CC(C)(C)c1ccc(C(C[C@H]2CCC(=O)N2)c2ccc(Cl)c(=O)[nH]2)cc1 (single isomer, unassigned) [Example 4-70]
- EC50: 0.5 to 3 µM

Structure (SMILES): CC(C)(C)c1ccc(C(C[C@@H]2CCC(=O)N2)c2ccc(Cl)c(=O)[nH]2)cc1 (single isomer, unassigned) [Example 4-76]
- EC50: 3 to 10 µM

Structure (SMILES): CC(C)(C)c1ccc(C(C[C@@H]2CCC(=O)N2)c2ccc(Cl)c(=O)[nH]2)cc1 (single isomer, unassigned) [Example 4-77]
- EC50: 3 to 10 µM

Structure (SMILES): CC(C)c1ccc(C(C[C@H]2CCC(=O)N2)c2ccc(Cl)c(=O)[nH]2)cc1 (single isomer, unassigned) [Example 4-85]
- EC50: 0.5 to 3 µM

Structure (SMILES): CC(C)c1ccc(C(C[C@H]2CCC(=O)N2)c2ccc(Cl)c(=O)[nH]2)cc1Cl (single isomer, unassigned) [Example 4-86]
- EC50: 0.01 to 0.5 µM

Structure (SMILES): CCOc1ccc(C(C[C@H]2CCC(=O)N2)c2ccc(C3CC3)c(=O)[nH]2)cc1Cl (single isomer, unassigned) [Example 4-87]
- EC50: 0.01 to 0.5 µM

Structure (SMILES): CC(C)(C)c1ccc(C(C[C@H]2CCN(C(=O)C3CC3)C2)c2ccc(Cl)c(=O)[nH]2)cc1 (single isomer, unassigned) [Example 4-96]
- EC50: 0.01 to 0.5 µM

Structure (SMILES): CC(C)(C)c1ccc(C(C[C@H]2CCN(C(=O)C3CC3)C2)c2ccc(Cl)c(=O)[nH]2)cc1 (single isomer, unassigned) [Example 4-97]
- EC50: 3 to 10 µM

Structure (SMILES): O=C1CC[C@H](CC(c2ccc3c(c2)CCO3)c2ccc(C3CC3)c(=O)[nH]2)N1 (single isomer, unassigned) [Example 4-209]
- EC50: 0.5 to 3 µM

Structure (SMILES): O=C1CC[C@H](CC(c2ccc(F)c(Cl)c2)c2ccc(C3CC3)c(=O)[nH]2)N1 (single isomer, unassigned) [Example 4-211]
- EC50: 0.5 to 3 µM

Structure (SMILES): Cc1cc(C(C[C@H]2CCC(=O)N2)c2ccc(C3CC3)c(=O)[nH]2)ccc1Cl (single isomer, unassigned) [Example 4-213]
- EC50: 0.5 to 3 µM

Structure (SMILES): Cc1cc(C(C[C@H]2CCC(=O)N2)c2ccc(C3CC3)c(=O)[nH]2)ccc1Cl (single isomer, unassigned) [Example 4-214]
- EC50: 3 to 10 µM

Structure (SMILES): Cc1ccc(C(C[C@H]2CCC(=O)N2)c2ccc(C3CC3)c(=O)[nH]2)cc1Cl (single isomer, unassigned) [Example 4-215]
- EC50: 0.01 to 0.5 µM

Structure (SMILES): Cc1ccc(C(C[C@H]2CCC(=O)N2)c2ccc(C3CC3)c(=O)[nH]2)cc1Cl (single isomer, unassigned) [Example 4-216]
- EC50: 3 to 10 µM

Structure (SMILES): O=C1CC[C@H](CC(c2ccc(Cl)c(F)c2)c2ccc(C3CC3)c(=O)[nH]2)N1 (single isomer, unassigned) [Example 4-217]
- EC50: 0.5 to 3 µM

Structure (SMILES): O=C1CC[C@H](CC(c2ccc(C(F)(F)F)c(F)c2)c2ccc(C3CC3)c(=O)[nH]2)N1 (single isomer, unassigned) [Example 4-219]
- EC50: 0.5 to 3 µM

Structure (SMILES): O=C1CC[C@H](CC(c2ccc(Cl)c(C(F)(F)F)c2)c2ccc(C3CC3)c(=O)[nH]2)N1 (single isomer, unassigned) [Example 4-221]
- EC50: 0.5 to 3 µM

Structure (SMILES): O=C1CC[C@H](CC(c2ccc(Cl)c(C(F)(F)F)c2)c2ccc(C3CC3)c(=O)[nH]2)N1 (single isomer, unassigned) [Example 4-222]
- EC50: 3 to 10 µM

Structure (SMILES): Cc1cc(C(C[C@H]2CCC(=O)N2)c2ccc(C3CC3)c(=O)[nH]2)ccc1F (single isomer, unassigned) [Example 4-223]
- EC50: 0.5 to 3 µM

Structure (SMILES): Cc1cc(C(C[C@H]2CCC(=O)N2)c2ccc(C3CC3)c(=O)[nH]2)ccc1F (single isomer, unassigned) [Example 4-224]
- EC50: 3 to 10 µM

Structure (SMILES): O=C1CC[C@H](CC(c2ccc(C(F)F)c(Cl)c2)c2ccc(C3CC3)c(=O)[nH]2)N1 (single isomer, unassigned) [Example 4-225]
- EC50: 0.01 to 0.5 µM

Structure (SMILES): O=C1CC[C@H](CC(c2ccc(C(F)F)c(Cl)c2)c2ccc(C3CC3)c(=O)[nH]2)N1 (single isomer, unassigned) [Example 4-226]
- EC50: 3 to 10 µM

Structure (SMILES): COc1cc(C(C[C@H]2CCC(=O)N2)c2ccc(C3CC3)c(=O)[nH]2)ccc1Cl (single isomer, unassigned) [Example 4-227]
- EC50: 0.5 to 3 µM

Structure (SMILES): O=C1CC[C@H](CC(c2ccc(OC(F)F)cc2)c2ccc(C3CC3)c(=O)[nH]2)N1 (single isomer, unassigned) [Example 4-229]
- EC50: 0.5 to 3 µM

Structure (SMILES): O=C1CC[C@H](CC(c2ccc(OC(F)F)cc2)c2ccc(C3CC3)c(=O)[nH]2)N1 (single isomer, unassigned) [Example 4-230]
- EC50: 3 to 10 µM

Structure (SMILES): Cc1cc(C(C[C@H]2CCC(=O)N2)c2ccc(C3CC3)c(=O)[nH]2)ccc1C(F)F (single isomer, unassigned) [Example 4-231]
- EC50: 0.01 to 0.5 µM

Structure (SMILES): Cc1cc(C(C[C@H]2CCC(=O)N2)c2ccc(C3CC3)c(=O)[nH]2)ccc1C(F)F (single isomer, unassigned) [Example 4-232]
- EC50: 3 to 10 µM

Structure (SMILES): O=C1CC[C@H](CC(c2ccc(C(F)F)c(F)c2)c2ccc(C3CC3)c(=O)[nH]2)N1 (single isomer, unassigned) [Example 4-233]
- EC50: 0.5 to 3 µM

Structure (SMILES): O=C1CC[C@H](CC(c2ccc(C(F)F)c(F)c2)c2ccc(C3CC3)c(=O)[nH]2)N1 (single isomer, unassigned) [Example 4-234]
- EC50: 3 to 10 µM

Structure (SMILES): CCOc1ccc(C(C[C@H]2CCC(=O)N2)c2ccc(Cl)c(=O)[nH]2)cc1 (single isomer, unassigned) [Example 4-235]
- EC50: 3 to 10 µM

Structure (SMILES): CCOc1ccc(C(C[C@H]2CCC(=O)N2)c2ccc(Cl)c(=O)[nH]2)cc1C(F)(F)F (single isomer, unassigned) [Example 4-237]
- EC50: 0.5 to 3 µM

Structure (SMILES): CCOc1ccc(C(C[C@H]2CCC(=O)N2)c2ccc(Cl)c(=O)[nH]2)cc1C (single isomer, unassigned) [Example 4-239]
- EC50: 0.5 to 3 µM

Structure (SMILES): CCOc1ccc(C(C[C@H]2CCC(=O)N2)c2ccc(Cl)c(=O)[nH]2)cc1C (single isomer, unassigned) [Example 4-240]
- EC50: 3 to 10 µM

Structure (SMILES): CCCc1ccc(C(C[C@H]2CCC(=O)N2)c2ccc(C(F)(F)F)cc2)[nH]c1=O (single isomer, unassigned) [Example 4-242]
- EC50: 0.5 to 3 µM

Structure (SMILES): CCCc1ccc(C(C[C@H]2CCC(=O)N2)c2ccc(C(F)(F)F)cc2)[nH]c1=O (single isomer, unassigned) [Example 4-243]
- EC50: 3 to 10 µM

Structure (SMILES): COc1ccc(C(C[C@H]2CCC(=O)N2)c2ccc(C(C)(C)C)cc2)[nH]c1=O (single isomer, unassigned) [Example 4-244]
- EC50: 0.5 to 3 µM

Structure (SMILES): COc1ccc(C(C[C@H]2CCC(=O)N2)c2ccc(C(C)(C)C)cc2)[nH]c1=O (single isomer, unassigned) [Example 4-245]
- EC50: 3 to 10 µM

Structure (SMILES): CC(C)(C)c1ccc(C(C[C@H]2CCC(=O)N2)c2ccc(OC(F)F)c(=O)[nH]2)cc1 (single isomer, unassigned) [Example 4-246]
- EC50: 0.5 to 3 µM

Structure (SMILES): CC(C)(C)c1ccc(C(C[C@H]2CCC(=O)N2)c2ccc(OC(F)F)c(=O)[nH]2)cc1 (single isomer, unassigned) [Example 4-247]
- EC50: 3 to 10 µM
